Source: ChEMBL document CHEMBL4266055, “Optimization of Phenyl Indole Inhibitors of the AAA+ ATPase p97” (ACS Med Chem Lett, 2018)
In brackets after ≈: the same amount, converted by molar mass.

Experiments:
[1] = target: T1, Transitional endoplasmic reticulum ATPase (Homo sapiens, UniProt P55072)
Description: Inhibition of recombinant full length human p97 (1 to 806 residues) expressed in Escherichia coli Rosetta 2 (DE3) using 100 uM ATP as substrate after 90 mins by luminescence assay

[2] = target: T1, Transitional endoplasmic reticulum ATPase; assay: Inhibition of recombinant full length human p97 (1 to 806 residues) expressed in Escherichia coli Rosetta 2 (DE3) using 20 uM ATP as substrate after 90 mins by luminescence assay
[3] = Aqueous solubility of the compound in pH 7.4 buffer by UV/Vis spectroscopic analysis; assay type: physicochemical
[4] = Half life in human liver microsomes at 10 uM in presence of NADPH/G6PD by LC-MS/MS analysis; assay type: ADME, microsome
[5] = Half life in mouse liver microsomes at 10 uM in presence of NADPH/G6PD by LC-MS/MS analysis; assay type: ADME, microsome
[6] = tested on: Panel NCI-60 (60 carcinoma cell lines); assay: Growth inhibition of human NCI60 cells after 48 hrs by sulforhodamine B assay; assay type: functional
[7] = target: T1, Transitional endoplasmic reticulum ATPase; assay: Inhibition of human p97 in human HeLa cells harboring UbG76V-GFP assessed as accumulation of UbG76V after 1 hr by microscopic analysis; assay type: cell-based
[8] = target: T1, Transitional endoplasmic reticulum ATPase; assay: Inhibition of human p97 in human HeLa cells harboring UbG76V-GFP assessed as accumulation of UbG76V after 6 hrs by microscopic analysis; assay type: cell-based

T1 sequence (P55072 whole entry, the tested form may be a part): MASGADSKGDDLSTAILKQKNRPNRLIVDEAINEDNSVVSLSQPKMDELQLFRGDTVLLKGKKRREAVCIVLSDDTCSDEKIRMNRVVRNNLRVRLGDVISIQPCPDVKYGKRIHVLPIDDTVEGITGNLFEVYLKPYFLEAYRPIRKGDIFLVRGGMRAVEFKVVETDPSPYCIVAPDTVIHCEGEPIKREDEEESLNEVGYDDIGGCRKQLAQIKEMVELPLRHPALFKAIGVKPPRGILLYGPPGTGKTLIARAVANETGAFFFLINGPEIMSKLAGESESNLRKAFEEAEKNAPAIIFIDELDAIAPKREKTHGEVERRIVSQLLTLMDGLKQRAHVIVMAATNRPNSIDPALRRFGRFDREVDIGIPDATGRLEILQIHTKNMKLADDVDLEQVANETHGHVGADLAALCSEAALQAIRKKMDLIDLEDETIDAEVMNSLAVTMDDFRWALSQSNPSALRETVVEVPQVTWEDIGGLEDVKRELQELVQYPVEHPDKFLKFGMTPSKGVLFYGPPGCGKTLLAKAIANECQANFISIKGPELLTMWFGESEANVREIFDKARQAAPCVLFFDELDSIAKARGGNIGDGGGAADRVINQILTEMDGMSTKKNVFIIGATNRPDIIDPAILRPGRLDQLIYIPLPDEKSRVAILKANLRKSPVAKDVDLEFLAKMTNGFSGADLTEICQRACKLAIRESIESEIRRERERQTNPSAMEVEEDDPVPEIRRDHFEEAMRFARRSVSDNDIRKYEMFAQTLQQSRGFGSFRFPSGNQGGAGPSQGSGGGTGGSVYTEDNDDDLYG

For Cn1ncnc1CCNC1CCN(c2cccc(-c3cc4ccccc4[nH]3)c2)CC1, the IC50 [1] was 990 nM and the IC50 [2] was 2400 nM.

For CCN1CCN(CCNC2CCN(c3cccc(-c4cc5ccccc5[nH]4)c3)CC2)CC1, the IC50 [1] was 200 nM.

Molecule Cc1cc(OCc2nnc(SC3CCCC3)n2-c2cccnc2)ccc1-c1ccc(S(C)(=O)=O)cc1 has a solubility [3] of 86 µM (≈ 44.8 µg/mL), a t1/2 [4] of under 0.167 h and a t1/2 [5] of under 0.167 h.

With c1ccc(CCNC2CCN(c3cccc(-c4cc5ccccc5[nH]4)c3)CC2)cc1 the IC50 [1] was 2610 nM.

Work on CC(C)N1CCN(C2(CNC3CCN(c4cccc(-c5cc6cc(F)ccc6[nH]5)c4)CC3)COC2)CC1 yielded an IC50 [1] of 90 nM.

For CN1CCN(CCNC2CCN(c3cccc(-c4cc5ccccc5[nH]4)c3)CC2)CC1, the IC50 [1] was 280 nM.

With CC(C)N1CCN(C2CCN(c3cccc(-c4cc5cc(F)ccc5[nH]4)c3)CC2)CC1 the IC50 [1] was 4760 nM.

Molecule CC(C)N1CCN(CCCNC2CCN(c3cccc(-c4cc5ccccc5[nH]4)c3)CC2)CC1 has an IC50 [1] of 380 nM.

Work on CC(C)N1CCN(CCNC2CCN(c3cccc(-c4cc5cc(F)ccc5[nH]4)c3)CC2)CC1 yielded an IC50 [1] of 70 nM.

Molecule CC(C)N1CCC(NC2CCN(c3cccc(-c4cc5cc(F)ccc5[nH]4)c3)CC2)CC1 has a GI50 [6] of 1580 nM, a solubility [3] of 380 µM (≈ 165 µg/mL) and an IC50 [1] of 50 nM. For the same molecule, the t1/2 [4] was 9.48 h, the EC50 [7] was 19000 nM and the EC50 [8] was over 40000 nM. For the same molecule, the t1/2 [5] was 6.43 h.

With CN1CCN(C2(CNC3CCN(c4cccc(-c5cc6cc(F)ccc6[nH]5)c4)CC3)CCC2)CC1 the GI50 [6] was 2000 nM, the solubility [3] was 330 µM (≈ 157 µg/mL) and the IC50 [1] was 20 nM. The t1/2 [4] was 7.92 h, the EC50 [7] was 15000 nM and the EC50 [8] was over 40000 nM. The t1/2 [5] was 4.62 h.

With c1ccc(CNC2CCN(c3cccc(-c4cc5ccccc5[nH]4)c3)CC2)nc1 the IC50 [1] was 1060 nM.

For CN(C)CCNC1CCN(c2cccc(-c3cc4cc(F)ccc4[nH]3)c2)CC1, the IC50 [1] was 800 nM.

c1cc(-c2cc3ccccc3[nH]2)cc(N2CCC(NCCN3CCNCC3)CC2)c1 gave an IC50 [1] of 330 nM.

Molecule CC(C)N1CCN(C2(CNC3CCN(c4cccc(-c5cc6cc(F)ccc6[nH]5)c4)CC3)CCC2)CC1 has an IC50 [1] of 100 nM.

In the case of CC(C)(C)N1CCN(CCNC2CCN(c3cccc(-c4cc5ccccc5[nH]4)c3)CC2)CC1, the IC50 [1] is reported as 210 nM.

Work on CC(C)N1CCN(C(=O)CCNC2CCN(c3cccc(-c4cc5cc(F)ccc5[nH]4)c3)CC2)CC1 yielded an IC50 [1] of 190 nM.

In the case of c1ccc(CCNC2CCN(c3cccc(-c4cc5ccccc5[nH]4)c3)CC2)nc1, the IC50 [1] is reported as 1050 nM.
